Key:
[1] = tested on: HAB1 with PYR/PYL receptors; test: Receptor-mediated PP2C inhibition assay with HAB1, Example 1; assay type: biochemical, Arabidopsis
Description: (§1) FIG. 2A-FIG. 2C. Novel ABA agonists inhibit PPC2 activity through multiple PYR/PYL. (A) Chemical structure of naturally occurring (+)-ABA and selected ABA agonists. (B) and (C) HAB1, ABU, and ABI2 PP2C enzyme activity based ABA-agonist assays for various receptors in the presence or absence of 10 μM each test chemical.
(§2) FIG. 3A-FIG. 3B. (A) Receptor-mediated dose-dependent inhibition of PP2C enzyme activity by ABA agonists and analogs. (B) Observed compound IC50 values in enzymatic HAB1 PP2C-based ABA-agonist assays.
(§3) FIG. 4A-FIG. 4B. Quinabactin activates multiple ABA receptors. (A) Chemical structures of ABA, pyrabactin and quinabactin. (B) Chemical-dependent inhibition of HAB1 by ABA receptors. IC50 values (nM) were determined as described in the methods using 50 nM HAB1, 50 nM and multiple concentrations of compounds; full dose response curves are provided as in FIG. 3. (nd) correspond to receptors that were not produced as active proteins. The phylogenetic tree is a Neighbor-Joining tree made using the JTT distance matrix in MEGA5 (Tamura K, et al. (2011) MEGA5: Molecular Evolutionary Genetics Analysis Using Maximum Likelihood, Evolutionary Distance, and Maximum Parsimony Methods. Molecular Biology and Evolution 28(10):2731-2739).
(§4) HAB1 and PYL proteins were expressed and purified as described previously (Park S Y, et al. (2009) Abscisic Acid Inhibits Type 2C Protein Phosphatases via the PYR/PYL Family of START Proteins. Science 324(5930):1068-1071), with minor modifications. To obtain GST-HAB1, -ABI1 and -ABI2 fusion proteins, the HAB1 cDNA was cloned into pGex-2T whereas ABI1 and ABI2 cDNAs were cloned into the vector pGex-4T-1. Expression was conducted in BL21[DE3]pLysS host cells. Transformed cells were pre-cultured overnight, transferred to LB medium and cultured at 30° C. to culture A600 of ˜0.5. The culture was then cooled on ice and MnCl2 added to 4 mM and IPTG added to 0.3 mM. After 16 hours incubation at 15° C., cells were harvested and recombinant proteins were purified on glutathione agarose as described previously (Park S Y, et al. (2009). To obtain 6×His-PYL receptor fusion proteins, receptor cDNAs for all 13 ABA receptors were cloned into the vector pET28 and expressed and purified as described previously (Mosquna A, et al. (2011) Potent and selective activation of abscisic acid receptors in vivo by mutational stabilization of their agonist-bound conformation. PNAS 108(51):20838-20843); this yielded soluble and functional protein (assessed using receptor-mediated PP2C inhibition assays) for all receptors except PYL7, PYL11 and PYL12. These three receptors were therefore alternatively expressed as maltose binding (MBP) fusion proteins using the vector pMAL-c; expression of these constructs was carried out in BL21 [DE3]pLysS host strain with the same induction conditions used for GST-HAB1. Recombinant MBP-PYL fusion proteins were purified from sonicated and cleared lysate using amylose resin (New England Biolab, Inc.) using the manufacturers purification instructions. This effort yielded an active MBP-PYL11 fusion protein, but failed for PYL7 and PYL12.
(§5) PP2C activity assays using recombinant receptors and PP2Cs were carried out as follows: Purified proteins were pre-incubated in 80 μl assay buffer containing 10 mM MnCl2, 3 μg bovine serum albumin and 0.1% 2-mercaptoethanol with ABA or ABA agonist for 30 minutes at 22° C. Reactions were started by adding 20 μL of a reaction solution containing 156 mM Tris-OAc, pH 7.9, 330 mM KOAc and 5 mM 4-methylumbelliferyl phosphate after which fluorescence measurements were immediately collected using an excitation filter 355 nm and an emission filter 460 nm on a Wallac plate reader. Reactions contained 50 nM PP2C and 100 nM PYR/PYL proteins, respectively.

[2] = tested on: ABI1 with PYR/PYL receptors; test: Receptor-mediated PP2C inhibition assay with ABI1, Example 1; assay type: biochemical, Arabidopsis; details: 10 μM; receptors PYR1, PYL1, PYL2, PYL3 and PYL5
Description: as §1
HAB1 and PYL proteins were expressed and purified as described previously (Park S Y, et al. (2009) Abscisic Acid Inhibits Type 2C Protein Phosphatases via the PYR/PYL Family of START Proteins. Science 324(5930):1068-1071), with minor modifications. To obtain GST-HAB1, -ABI1 and -ABI2 fusion proteins, the HAB1 cDNA was cloned into pGex-2T whereas ABI1 and ABI2 cDNAs were cloned into the vector pGex-4T-1. […] After 16 hours incubation at 15° C., cells were harvested and recombinant proteins were purified on glutathione agarose as described previously (Park S Y, et al. (2009). To obtain 6×His-PYL receptor fusion proteins, receptor cDNAs for all 13 ABA receptors were cloned into the vector pET28 and expressed and purified as described previously (Mosquna A, et al. (2011) Potent and selective activation of abscisic acid receptors in vivo by mutational stabilization of their agonist-bound conformation. PNAS 108(51):20838-20843); this yielded soluble and functional protein (assessed using receptor-mediated PP2C inhibition assays) for all receptors except PYL7, PYL11 and PYL12. […]

aba2 mutant plants = test: Rescue of growth defects of ABA-deficient mutant aba2; assay type: in vivo, Arabidopsis; details: 25 μM sprayed two times a day for two weeks; versus DMSO
Description: FIG. 16A-FIG. 16B. Application of LC66C6 can rescue growth defects observed in the ABA-deficient mutant aba2. Chemical solution (25 μM) was sprayed on 14-day-plants two times per day for 2 weeks. The image (A) and fresh weight (B) were obtained from 4-week plants.
In this example, 14-day old wild-type and aba2 mutant plants were sprayed with a solution containing 25 μM of agonist two times a day for two weeks. Images and fresh weight were obtained from 4 week old plants.

[3] = target: T1, HAB1 with PYR/PYL receptors (Arabidopsis thaliana, UniProt Q9FLB1); test: Receptor-mediated PP2C inhibition assay with HAB1, Example 1; assay type: biochemical; details: PYL5
T1 construct: 6xHis (N); made in house; host or cells: E. coli BL21[DE3]pLysS
T1 sequence (Q9FLB1 1-203): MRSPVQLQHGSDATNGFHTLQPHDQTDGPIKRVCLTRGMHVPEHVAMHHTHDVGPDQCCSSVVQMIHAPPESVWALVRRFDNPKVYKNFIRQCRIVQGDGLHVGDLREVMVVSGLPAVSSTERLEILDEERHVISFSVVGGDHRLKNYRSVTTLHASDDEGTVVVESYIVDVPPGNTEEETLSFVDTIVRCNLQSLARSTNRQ
T1 sequence (Q9CAJ0 1-511 partner): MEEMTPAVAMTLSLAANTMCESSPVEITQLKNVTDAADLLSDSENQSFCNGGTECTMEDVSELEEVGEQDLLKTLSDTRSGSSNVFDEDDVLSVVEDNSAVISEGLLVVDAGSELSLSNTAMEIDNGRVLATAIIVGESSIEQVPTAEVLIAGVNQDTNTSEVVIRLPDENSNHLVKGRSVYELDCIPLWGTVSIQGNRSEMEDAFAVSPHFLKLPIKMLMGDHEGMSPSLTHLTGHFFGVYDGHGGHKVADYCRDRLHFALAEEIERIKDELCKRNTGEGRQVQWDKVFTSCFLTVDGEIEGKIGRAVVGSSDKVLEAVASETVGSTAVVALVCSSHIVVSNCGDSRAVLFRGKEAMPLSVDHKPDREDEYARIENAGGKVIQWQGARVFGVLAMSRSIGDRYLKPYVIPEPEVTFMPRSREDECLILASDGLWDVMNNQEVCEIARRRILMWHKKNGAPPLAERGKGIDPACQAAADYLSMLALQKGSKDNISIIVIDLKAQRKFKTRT
Description: as §1, §2, §3, §4, §5

| SMILES | PP2C inhibition of HAB1 ([1]; 10 μM, receptors PYR1, PYL1, PYL2, PYL3 and PYL5) | IC50 values of receptor activation ([1]; PYR1, PYLs 1-3 and PYL5) | Agonist strength compared with ABA ([1]; PYR1 or PYL1) | Maximal PP2C inhibition compared with pyrabactin ([1]; all receptors tested) | PP2C inhibition of ABI1 [2] | Size of aba2 mutant plants (aba2 mutant plants) | PP2C inhibition at saturation [3] | IC50 ([3]; read-out: IC50 of PYL5 activation) |
| --- | --- | --- | --- | --- | --- | --- | --- | --- |
| CCCN1C(=O)CCc2cc(NS(=O)(=O)Cc3ccc(C)cc3)ccc21 [LC66C6] | > 70% | submicromolar | stronger PYR1 or PYL1 agonist than ABA | higher than that observed with pyrabactin with all receptors tested | > 70% | significantly increased the size of the mutant plants |  |  |
| O=S(=O)(NCc1ccccn1)c1ccc(Br)c2ccccc12 [pyrabactin, reference compound] |  |  |  |  |  |  | ~40% | 900 nM |

— US20160280651A1, “COMPOUNDS THAT INDUCE ABA RESPONSES” (THE REGENTS OF THE UNIVERSITY OF CALIFORNIA, priority 2013, published 2016)
